Reference: ChEMBL document CHEMBL1201862, “PubChem BioAssay data set” (2004)
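1) Cells in 96-well plates. 2) Compound, 48 h, 5 concentrations. 3) Linear interpolation between surrounding doses. 4) Unreached endpoint = highest concentration. Abbreviation: GI50, concentration required for 50% inhibition of growth.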 The source made the active and inactive calls. Rule as the data show it: active = GI50 up to about 1.1 µM and inactive = higher.

Experiments:
Assay in all cases: DTP human tumour cell line panel, 48 h
HT-29 = tested on: HT-29
HCC 2998 = tested on: HCC 2998
OVCAR-8 = tested on: OVCAR-8
M14 = tested on: M14
RXF 393 = tested on: RXF 393
SN12C = tested on: SN12C
HCT-116 = tested on: HCT-116
MCF7 = tested on: MCF7
A498 = tested on: A498
TK-10 = tested on: TK-10
OVCAR-3 = tested on: OVCAR-3
NCI-H226 = tested on: NCI-H226
HCT-15 = tested on: HCT-15
786-0 = tested on: 786-0
SR = tested on: SR
SW-620 = tested on: SW-620
SK-MEL-28 = tested on: SK-MEL-28
LOX IMVI = tested on: LOX IMVI

Clc1c(Cl)c(Cl)c2c(nnn2C2CCCO2)c1Cl (stereo not given)
GI50 (HT-29): 33.6 µM (inactive)
GI50 (HCC 2998): 29.8 µM (inactive)
GI50 (OVCAR-8): 29.3 µM (inactive)
GI50 (M14): 39.6 µM (inactive)
GI50 (RXF 393): 44.4 µM (inactive)
GI50 (SN12C): 40.7 µM (inactive)
GI50 (HCT-116): 39.1 µM (inactive)
GI50 (MCF7): 33.9 µM (inactive)
GI50 (A498): 27.5 µM (inactive)
GI50 (TK-10): 65.3 µM (inactive)
GI50 (OVCAR-3): 34.6 µM (inactive)
GI50 (NCI-H226): 34.4 µM (inactive)
GI50 (HCT-15): 28.4 µM
GI50 (786-0): 45.8 µM (inactive)
GI50 (SR): 32.9 µM (inactive)

CCOC(=O)C1(C#N)OC(=O)c2cnccc21 (stereo not given)
GI50 (SW-620): > 100 µM (inactive)
GI50 (HT-29): > 100 µM (inactive)
GI50 (HCC 2998): > 100 µM (inactive)
GI50 (OVCAR-8): > 100 µM (inactive)
GI50 (M14): > 100 µM (inactive)
GI50 (RXF 393): > 100 µM (inactive)
GI50 (SN12C): > 100 µM (inactive)
GI50 (HCT-116): > 100 µM (inactive)
GI50 (MCF7): > 100 µM (inactive)
GI50 (A498): > 100 µM (inactive)
GI50 (SK-MEL-28): > 100 µM (inactive)
GI50 (LOX IMVI): > 100 µM (inactive)
GI50 (OVCAR-3): > 100 µM (inactive)
GI50 (NCI-H226): > 100 µM (inactive)
GI50 (HCT-15): > 100 µM
GI50 (786-0): > 100 µM (inactive)
GI50 (SR): > 100 µM (inactive)

O=C(NCc1cccs1)OC1CC2CCC1C2 (stereo not given)
GI50 (SW-620): > 100 µM (inactive)
GI50 (HT-29): > 100 µM (inactive)
GI50 (OVCAR-8): > 100 µM (inactive)
GI50 (M14): > 100 µM (inactive)
GI50 (RXF 393): > 100 µM (inactive)
GI50 (SN12C): > 100 µM (inactive)
GI50 (HCT-116): > 100 µM (inactive)
GI50 (MCF7): > 100 µM (inactive)
GI50 (A498): > 100 µM (inactive)
GI50 (SK-MEL-28): > 100 µM (inactive)
GI50 (LOX IMVI): > 100 µM (inactive)
GI50 (TK-10): > 100 µM (inactive)
GI50 (OVCAR-3): > 100 µM (inactive)
GI50 (NCI-H226): > 100 µM (inactive)
GI50 (HCT-15): > 100 µM
GI50 (786-0): > 100 µM (inactive)
GI50 (SR): > 100 µM (inactive)

NC1CSc2ccccc2NC1=O (stereo not given)
GI50 (SW-620): > 100 µM (inactive)
GI50 (HT-29): > 100 µM (inactive)
GI50 (HCC 2998): > 100 µM (inactive)
GI50 (OVCAR-8): > 100 µM (inactive)
GI50 (M14): > 100 µM (inactive)
GI50 (RXF 393): > 100 µM (inactive)
GI50 (SN12C): > 100 µM (inactive)
GI50 (HCT-116): > 100 µM (inactive)
GI50 (MCF7): > 100 µM (inactive)
GI50 (SK-MEL-28): > 100 µM (inactive)
GI50 (LOX IMVI): > 100 µM (inactive)
GI50 (TK-10): > 100 µM (inactive)
GI50 (OVCAR-3): > 100 µM (inactive)
GI50 (NCI-H226): > 100 µM (inactive)
GI50 (HCT-15): > 100 µM
GI50 (786-0): > 100 µM (inactive)
GI50 (SR): > 100 µM (inactive)

Cc1cn(CCOCCOC(=O)NC(CCCNC(N)=O)C(=O)O)c(=O)[nH]c1=O (stereo not given)
GI50 (SW-620): > 100 µM (inactive)
GI50 (HT-29): > 100 µM (inactive)
GI50 (HCC 2998): > 100 µM (inactive)
GI50 (OVCAR-8): > 100 µM (inactive)
GI50 (M14): > 100 µM (inactive)
GI50 (RXF 393): > 100 µM (inactive)
GI50 (SN12C): > 100 µM (inactive)
GI50 (HCT-116): > 100 µM (inactive)
GI50 (MCF7): > 100 µM (inactive)
GI50 (SK-MEL-28): > 100 µM (inactive)
GI50 (LOX IMVI): > 100 µM (inactive)
GI50 (TK-10): > 100 µM (inactive)
GI50 (OVCAR-3): > 100 µM (inactive)
GI50 (NCI-H226): > 100 µM (inactive)
GI50 (HCT-15): > 100 µM
GI50 (786-0): > 100 µM (inactive)
GI50 (SR): > 100 µM (inactive)

COC(=O)[C@H](NC(=O)OC(C)(C)C)[C@H]1COC(C)(C)O1
GI50 (SW-620): > 100 µM (inactive)
GI50 (HT-29): > 100 µM (inactive)
GI50 (HCC 2998): > 100 µM (inactive)
GI50 (OVCAR-8): > 100 µM (inactive)
GI50 (M14): > 100 µM (inactive)
GI50 (RXF 393): > 100 µM (inactive)
GI50 (SN12C): > 100 µM (inactive)
GI50 (HCT-116): > 100 µM (inactive)
GI50 (MCF7): > 100 µM (inactive)
GI50 (A498): > 100 µM (inactive)
GI50 (SK-MEL-28): > 100 µM (inactive)
GI50 (LOX IMVI): > 100 µM (inactive)
GI50 (TK-10): > 100 µM (inactive)
GI50 (OVCAR-3): > 100 µM (inactive)
GI50 (HCT-15): > 100 µM
GI50 (786-0): > 100 µM (inactive)
GI50 (SR): > 100 µM (inactive)
